Measured values published in patent publication US11000511B2, “Chemical compounds as antibiotics” (priority 2017, dated 2021).

Key:
[1] = target: T1, purified LasB protein from P. aeruginosa (Pseudomonas aeruginosa, UniProt P14756); test: Fluorometric assay to determine Ki (Assay 2); type: biochemical
T1 construct: purchased Merck or Charles River Laboratories
Method: (§1) Experiments were therefore conducted (1) to measure the potency of inhibition of compounds of the invention against purified Pseudomonas aeruginosa LasB enzyme and also experiments were conducted (2) to measure the ability of compounds of the invention to inhibit LasB-catalysed elastin degradation. The first assay uses a commercial fluorescent synthetic peptide and purified LasB enzyme. The LasB hydrolysis kinetics are measured allowing the determination of the IC50 and Ki of the inhibitors; the second is a more physiological assay using dialysed Pseudomonas aeruginosa supernatant as source of enzyme, plus its natural substrate Elastin. It is an “end point assay” that determines the percentage of LasB inhibition by each compound for one particular time point and inhibitor concentration. Technical details are described below:
This assay uses commercially available substrate (Abz-Ala-Gly-Leu-Ala-p-Nitro-Benzyl-Amide (Ex: 340 nm, Em: 415 nm) from Peptide International) and purified LasB protein from P. aeruginosa (provided by Merck or Charles River Laboratories). It is performed to determine LasB elastase activity and assess compound inhibition in 96-well plate format. Some compounds of Formula (I) were assessed using the method of Assay 1 (described below). Other compounds of Formula (I) were assessed using the alternative but equivalent method of Assay 2 (described below).
Method: 10 to 140 ng/ml purified LasB is incubated with 250 μM Abz-Ala-Gly-Leu-Ala-p-Nitro-Benzyl-Amide in 50 mM Tris-HCl pH 7.4, 2.5 mM CaCl2), 0.01% of Triton X100 at 37° C. LasB activity (corresponding to fluorescence emission induced by substrate hydrolysis) is measured over 30 min at 37° C. with a fluorescence plate reader such as the Perkin Elmer Envision or similar. Different range of inhibitor concentrations are routinely assessed depending of inhibitor potency from 0.006 to 200 μM (Assay 1; 2-fold dilutions series) or from 0.0016 to 200 μM (Assay 2; 2-fold dilutions series) in order to determine IC50.
The equation used to calculate the Ki from IC50 is: Ki=IC50/(1+([S]/Km)) where [S]=250 μM and Km=214 μM.

[2] = target: T2, LasB elastase activity in dialysed supernatant from P. aeruginosa strain PA01 (Pseudomonas aeruginosa, UniProt P14756); test: Elastin Congo Red assay to determine % inhibition (Assay 2); type: biochemical; details: read-out: Elastin hydrolysis % inhibition @ 50/25 μM inhibitor concentration Assay 2
T2 construct: uses as source of enzyme dialysed supernatant from P. aeruginosa; endogenous in cells; host or cells: P. aeruginosa strain PA01 culture supernatant, filtered and dialysed
T2 sequence (P14756 198-498): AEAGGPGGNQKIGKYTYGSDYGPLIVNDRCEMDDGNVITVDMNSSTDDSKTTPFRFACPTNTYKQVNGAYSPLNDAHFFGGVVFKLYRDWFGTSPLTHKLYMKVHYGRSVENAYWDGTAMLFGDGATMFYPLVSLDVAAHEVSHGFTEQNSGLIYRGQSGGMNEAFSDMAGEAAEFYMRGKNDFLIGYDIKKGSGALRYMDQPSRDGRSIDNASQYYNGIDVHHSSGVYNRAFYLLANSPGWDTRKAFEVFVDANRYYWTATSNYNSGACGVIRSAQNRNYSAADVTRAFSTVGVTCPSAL
Method: as §1
The Elastin assay uses as source of enzyme dialysed supernatant from P. aeruginosa and the elastin congo red as substrate. The natural LasB substrate, elastin, is complexed with the congo red dye (Elastin Congo Red, ECR). The elastolysis activity from the culture supernatant will degrade elastin and release the congo red dye into the supernatant. This red dye release can be measured with a spectrophotometer. Some compounds of Formula (I) were assessed using the method of Assay 1 (described below). Other compounds of Formula (I) were assessed using the alternative but equivalent method of Assay 2 (described below).
Method (Assay 2): To determine LasB elastase activity and assess compound inhibition, an overnight culture of P. aeruginosa strain PA01 is diluted in LB medium. After reaching an OD600 nm of 0.6, this culture is diluted and incubated for additional 18-24 h in a shaking incubator. Culture supernatants are recovered by centrifugation and filtrated through a […] filter. These supernatants are dialysed (filtration molecules <20 kDa) into a 50 mM Tris-HCl pH 7.4, 2.5 mM CaCl2 solution at 4° C. under agitation for 24 h. Supernatant dialysed is then mixed volume/volume with the ECR suspension (20 mg/mL of ECR in 100 mM Tris-HCl pH 7.4 buffer supplemented with 1 mM CaCl2) supplemented with TritonX 100 (final concentration of 0.01%) in presence of DMSO (positive control) and/or different concentrations of compound (routinely […]). As a negative control, the dialysed supernatant is replaced by Tris-HCl solution (50 mM Tris-HCl pH 7.4, 2.5 mM CaCl2). The mixed reaction is then incubated overnight in a 37° C. shaking incubator. The reaction supernatant is recovered by centrifugation and the release of congo-red is measured by its absorbance at 495 nm (OD495 nm).
Percentage inhibition is determined using the following equation: ((OD495 nm value of positive control−OD495 nm value of negative control)−(OD495 nm value of treated supernatant−OD495 nm value of negative control))/(OD495 nm value of positive control−OD495 nm value of negative control)×100.

T1 sequence (P14756 198-498): as above

O=C(O)CC1(C(=O)NCc2nc3cc4c(cc3s2)OCO4)Cc2ccccc2C1 [Example 115, 2-[2-([1,3]dioxolo[4,5-f][1,3]benzothiazol-6-ylmethylcarbamoyl)indan-2-yl]acetic acid]
Ki [1]: < 300 nM | inhibition at 50 µM [2]: > 60%

O=C(O)CC1(C(=O)NCc2nc3ccc(OC(F)(F)F)cc3s2)Cc2ccccc2C1 [Example 128, 2-[2-[[6-(trifluoromethoxy)-1,3-benzothiazol-2-yl]methylcarbamoyl]indan-2-yl]acetic acid]
Ki [1]: < 300 nM | inhibition at 50 µM [2]: > 60%

CCOc1ccc2nc(CNC(=O)C3(CC(=O)O)Cc4ccccc4C3)sc2c1 [Example 108, 2-[2-[(6-ethoxy-1,3-benzothiazol-2-yl)methylcarbamoyl]indan-2-yl]acetic acid]
Ki [1]: < 300 nM | inhibition at 50 µM [2]: > 60%

COc1cc2nc(CNC(=O)C3(CC(=O)O)Cc4ccccc4C3)sc2cc1OC [Example 114, 2-[2-[(5,6-dimethoxy-1,3-benzothiazol-2-yl)methylcarbamoyl]indan-2-yl]acetic acid]
Ki [1]: < 300 nM | inhibition at 50 µM [2]: > 60%

COc1cc2sc(CNC(=O)C3(CC(=O)O)Cc4ccccc4C3)nc2cc1N1CC([N+](C)(C)C)C1 [Example 123, 2-(2-(((6-methoxy-5-(3-(trimethylammonio)azetidin-1-yl)benzo[d]thiazol-2-yl)methyl)carbamoyl)-2,3-dihydro-1H-inden-2-yl)acetate]
Ki [1]: < 300 nM | inhibition at 50 µM [2]: > 60%

COc1cc2sc(CNC(=O)C3(CC(=O)O)Cc4cc(F)c(F)cc4C3)nc2cc1OCCCN(C)C [Example 124, 2-(2-(((5-(3-(dimethylamino)propoxy)-6-methoxybenzo[d]thiazol-2-yl)methyl)carbamoyl)-5,6-difluoro-2,3-dihydro-1H-inden-2-yl)acetic acid]
Ki [1]: < 300 nM | inhibition at 50 µM [2]: > 60%

O=C(O)CC1(C(=O)NCc2nc3ccc(OCCO)cc3s2)Cc2ccccc2C1 [Example 109, 2-[2-[[6-(2-hydroxyethoxy)-1,3-benzothiazol-2-yl]methylcarbamoyl]indan-2-yl]acetic acid]
Ki [1]: < 300 nM | inhibition at 50 µM [2]: > 60%

COc1cc2sc(CNC(=O)C3(CC(=O)O)Cc4cc(F)c(F)cc4C3)nc2cc1OCCC[N+](C)(C)C [Example 125, 2-(5,6-difluoro-2-(((6-methoxy-5-(3-(trimethylammonio)propoxy)benzo[d]thiazol-2-yl)methyl)carbamoyl)-2,3-dihydro-1H-inden-2-yl)acetate]
Ki [1]: < 300 nM | inhibition at 50 µM [2]: > 60%
